In brackets after ≈: the same amount, converted by molar mass.
What was measured:
P-388 cells = assay: Assay against P-388 cells (lymphoid neoplasm from DBA/2 mouse), cell count after three days; type: cell-based; settings: P388, 72 h, 1×10^4 cells per well, three days of incubation, triplicate
Procedure: Compounds were diluted in DMSO/MeOH/Acetone (1:4.5:4.5) and they were tested at different concentrations. The solvent was allowed to evaporate before the cells were seeded.
The following antitumoral assay, employing the current screening protocol has been carried out using the following cell line:
P-388 (lymphoid neoplasm from DBA/2 mouse).
Assay Against P-388 Cells (Lymphoidneoplasm from DBA/2 Mouse )
P-388 cells were seeded into 16 mm wells at 1×10^4 cells per well in 1 ml aliquots of MEM 10C containing different concentrations of the compound. All determinations were carried out in triplicate. A separate set of cultures without drug was counted daily to ensure that the cells remained in exponential growth over the period of observation. After three days of incubation, cells were counted and the IC50 was determined.

Gram positive bacteria = settings: background, literature; cited from earlier work
thymidylate synthetase = settings: background, literature; cited from earlier work
[1] = background statement, no test described; cited from earlier work

CCC1C(C)=CNC2=C1C(=O)c1c(C)cc(=O)[nH]c1C2=O (centres unmarked) [Compound 1, 4,6-dimethyl-5-5,8-dihydro-1H-1,8-diazaanthracene-2,9,10-trione]
IC50 (P-388 cells): 1 µg/mL (≈ 3.52 µM)

Cc1cc(=O)[nH]c2c1C(=O)C1=C(NC=CC1c1ccccc1)C2=O (centres unmarked) [Compound 2, 4-methyl-5-phenyl-5,8-dihydro-1H-1,8-diazaanthracene-2,9,10-trione]
IC50 (P-388 cells): 0.25 µg/mL (≈ 0.785 µM)

Cc1cc(=O)[nH]c2c1C(=O)C1=C(NC=CC1c1ccc(N(C)C)cc1)C2=O (centres unmarked) [Compound 3, 5-(4-Dimethylamino-phenyl) 4-methyl-5,8-dihydro-1H-1,8-diazaanthracene-2,9,10-trione]
IC50 (P-388 cells): 20 µg/mL (≈ 55.3 µM)

Cc1ccnc2c1C(=O)c1c(C)cc(=O)[nH]c1C2=O [Compound 4, 4,5-dimethyl-1H-1,8-diazaanthracene-2,9,10-trione]
IC50 (P-388 cells): 1 µg/mL (≈ 3.93 µM)

CCc1cnc2c(c1)C(=O)c1c(C)cc(=O)[nH]c1C2=O [Compound 5, 6-ethy-4-methyl-1H-1,8-diazaanthracene-2,9,10-trione]
IC50 (P-388 cells): 0.5 µg/mL (≈ 1.86 µM)

Cc1cc(=O)[nH]c2c1C(=O)c1c(-c3ccc(N(C)C)cc3)ccnc1C2=O [Compound 6, 5-(p-dimethylaminophenyl)-4-methyl-1H-1,8-diazaanthracene-2,9,10-trione]
IC50 (P-388 cells): 1 µg/mL (≈ 2.78 µM)

CCc1cc2c([nH]c1=O)C(=O)c1ncc(C)cc1C2=O [Compound 7, 3-ethyl-6-methyl-1H-1,8-diazaanthracene-2,9,10-trione]
IC50 (P-388 cells): 0.2 µg/mL (≈ 0.746 µM)

Cc1cc2c([nH]c1=O)C(=O)c1ccccc1C2=O [Compound 8, 3-Methyl-1H-1azaanthracene-2,9,10-trione]
IC50 (P-388 cells): 0.2 µg/mL (≈ 0.836 µM)

CCCc1c2c([nH]c(=O)c1C)C(=O)c1[nH]c(=O)c(C)c(CCC)c1C2=O [Diazaquinomicyn A]
activity against Gram positive bacteria (Gram positive bacteria): good activity | capacity to inhibit the thymidylate synthetase (thymidylate synthetase): capacity to inhibit | antitumoral activity [1]: inactive

Source: patent US5605905A, “Antitumoral compounds” (Universidad Complutense de Madrid, priority 1992, dated 1997)
